Patent publication US20230100235A1, “ANTICANCER AGENT COMPOSITION” (CARNA BIOSCIENCES, INC., priority 2020, published 2023)

System: BTK-C481S-mutant OCI-Ly10 cells
Experiment: Combined effect by BLISS score, BTK-C481S-mutant OCI-Ly10
Format: cell-based, Human
Conditions: combination with venetoclax, positive = synergistic
Method: After 96 hours of culture, an Alamar Blue reagent was added, and 3 hours later, fluorescence of excitation wavelength 560 nm/fluorescence wavelength 590 nm was measured. Cell proliferation inhibition rate and viability (100−inhibition rate %) were determined by setting a compound-free and cell-free well as 100% and a compound-free and cell-containing well as 0%.
BTK-C481S-mutant OCI-Ly10 cells were produced by point mutation knock-in using the CRISPR-Cas9 system. Cas9 protein (Thermo Fisher Scientific Inc.), guide RNA prepared with GeneArt™ Precision gRNA Synthesis Kit (Thermo Fisher Scientific Inc.), and a single-stranded synthetic oligonucleotide to replace 481st cysteine residue of BTK with a serine residue were introduced into OCI-Ly10 cells by an electroporation method. The resulting modified OCI-Ly10 cells were cultured in the presence of ibrutinib, and the grown cells were used as BTK-C481S-mutant OCI-Ly10 cells. Transduction of the mutation was confirmed by genomic DNA and mRNA sequence analysis.
The BLISS score was calculated in the same manner as in Example 1.

**Q.** For `Nc1nc(-c2cccc(-n3ccc4cc(C5CC5)cc(F)c4c3=O)c2CO)c2cc(C3=CCN(C4COC4)CC3)[nH]c2n1` [Compound (I-A), 2-(3-{2-amino-6-[1-(oxetan-3-yl)-1,2,3,6-tetrahydropyridin-4-yl]-7H-pyrrolo[2,3-d]pyrimidin-4-yl}-2-(hydroxymethyl)phenyl)-6-cyclopropyl-8-fluoroisoquinolin-1(2H)-one], which BLISS score is on record?
**A.** positive values
